From US9926354B2, “Amyloid precursor protein (APP) based Ã#-secretase inhibitor peptides, and methods of use” (UNIVERSITY OF SOUTH FLORIDA, priority 2014, dated 2018)

Key:
5XFAD mice = experiment: β-amyloid deposits in 5XFAD mouse brains (4G8 immunohistochemistry, image analysis); format: in vivo; details: 8 weeks i.p. treatment
Description: Percentage of 4G8 immunoreactive areas in regions of interest (RSC, EC and H regions) was quantified by image analysis for each treatment group (B). Data are represented as mean±SD (n=10, 5 female/5 male).
5XFAD Mice—Transgenic AD mice [5XFAD; B6SJL-Tg(APPSwF1Lon,PSEN1*M146L*L286V) 6799Vas/Mmjax] at 2.5 months of age were obtained from the Jackson Laboratory (Bar Harbor, Me., USA) and housed and maintained in the Animal Facility of College of Medicine at University of South Florida. The mice at 3.5 months of age were treated with TAT-APPsweBBP, TAT peptide (100 nM/kg in 100 μl PBS) or PBS (100 μl) intraperitioneally (i.p.) daily for eight consecutive weeks. The mice were subjected to behavioral testing after 8 week-treatment and euthanized for immunohistochemical, ELISA and WB analysis after completing behavioral tests. All experiments involving mice were in compliance with the U.S. Department of Health and Human Services Guide for the Care and Use of Laboratory Animals and in accordance with the guidelines of the USF Institutional Animal Care and Use Committee.
Immunohistochemistry—Fixed cell cultures and brain sections were stained with indicated antibodies and then treated with donkey anti-mouse IgG conjugated with Alexa Fluor 488 (1:200) and goat anti-rabbit IgG conjugated with Alexa Fluor 594 (1:200; Invitrogen, Carlsbad, Calif., USA). […]

[1] = system: CHO cells over-expressing human Swedish mutant APP (CHO/APPswe); experiment: Aβ and sAPPα production in cultured media of CHO/APPswe cells by ELISA; format: cell-based, Chinese hamster; details: 20 μg/mL, 24 hours
Protocol: Cell Culture—Chinese hamster ovary (CHO) cells engineered to express wild-type human APP (CHO/APPwt cells) or Swedish mutant human APP (CHO/APPswe cells) were kindly provided by Dr. Stefanie Hahn and Dr. Sascha Weggen (University of Heinrich Heine, Dusseldorf, Germany). As described previously (Obregon et al., 2012), these cells were cultured in Dulbecco's modified Eagle's medium (DMEM) with 10% fetal bovine serum (FBS), 1 mM sodium pyruvate, and 100 units/mL of penicillin and streptomycin.
To confirm the binding of APPsweBBP with BACE1, CHO/APPwt cells were plated in 8-well chambers (5×10^5/well), incubated with TAT-APPsweBBP-biotin or APPsweBBP-biotin at 20 μM for 30 minutes, fixed with 4% paraformaldehyde for 20 minutes, washed and permeabilized with 0.5% Triton X-100. Following application of blocking buffer, these cells were stained with mouse anti-BACE1 and rabbit anti-biotin antibodies overnight at 4° C. for immunocytochemistry analysis. In order to determine the inhibitory effects of TAT-APPsweBBP on BACE1-mediated APP β-cleavage and subsequent Aβ production, both CHO/APPwt and CHO/APPswe cells were plated in 24 well-plates (3×10^5/well) and treated with TAT-APPsweBBP at 0-20 μM for 24 hours. The cultured media were collected for Aβ analysis by enzyme-linked immunosorbent assay (ELISA) and sAPPα analysis by ELISA and Western blot (WB). Cell lysates were also prepared for analysis of APP amyloidogenic processing by WB.
ELISA—Mouse brains were homogenized in ice-cold lysis buffer for 30 seconds using a Minilys tissue homogenizer (Bertin Technologies, Montigny-le-Bretonneux, France) set at high speed, allowed to stand for 15 minutes at 4° C., and centrifuged at 15,000 rpm for 30 minutes. Soluble Aβ1-40/42 species and sAPPα were directly detected in cultured cell media or brain homogenates using the Aβ1-40/42 (Invitrogen) and sAPPα ELISA kits (IBL-America, Minneapolis, Minn., USA).
To further examine the ability of the Swedish mutant APP BACE1 binding peptide/Tat fusion peptides to decrease Aβ production, CHO cells overexpressing either human wild-type APP (CHO/APPwt cells) or Swedish mutant APP (hereinafter referred to as “CHO/APPswe cells”) are treated with a variety of APP-based BACE1 inhibitor peptides, as shown in Table 1 and Table 2. Aβ production is determined using ELISA.

BACE1 = BACE1 (Homo sapiens, UniProt P56817); experiment: Binding to and cleavage by recombinant BACE1 (WB, IP); details: biotin-labeled peptide, recombinant BACE1, 4 hours
Protocol: Biotin-labeled TAT-APPsweBBP was incubated with or without recombinant BACE1 protein and examined by western blot (A). Full length TAT-APPsweBBP and β-cleaved TAT-APPsweBBP were clearly detected. Immunoprecipitation (IP) with anti-BACE1 antibody and subsequent WB with anti-biotin antibody (B) and IP with anti-biotin antibody and then WB with anti-BACE1 antibody (C) both reveal that TAT-APPsweBBP, but not TAT peptide, binds to BACE1. To further confirm TAT-APPswcBPP can bind to BACE1, human wild-type APP expressing CHO cells were incubated with biotin-labeled TAT-APPsweBBP or biotin-labeled APPsweBBP at 20 μM for 30 minutes, and then stained with anti-BACE1 or anti-biotin antibodies (D). […] In addition, these treated cells were further analyzed by IP with anti-biotin and subsequent WB with anti-BACE1 antibodies (E), with results showing that TAT-APPsweBBP strongly and specifically binds to BACE1.
In order to confirm that APPsweBBP containing the β-cleavage site could bind to and be consequently proteolyzed by BACE1, 10 μg of biotin-labeled TAT-APPsweBBP was incubated with or without 10 μL of recombinant BACE1 protein (1.0 U/mL) in BACE1 reaction buffer for 4 hours at 37° C. and then subjected to Western blot (WB) analysis as described previously (Rezai-Zadeh et al., 2005; Obregon et al., 2012). […]

BACE1, sequence (P56817 46-501): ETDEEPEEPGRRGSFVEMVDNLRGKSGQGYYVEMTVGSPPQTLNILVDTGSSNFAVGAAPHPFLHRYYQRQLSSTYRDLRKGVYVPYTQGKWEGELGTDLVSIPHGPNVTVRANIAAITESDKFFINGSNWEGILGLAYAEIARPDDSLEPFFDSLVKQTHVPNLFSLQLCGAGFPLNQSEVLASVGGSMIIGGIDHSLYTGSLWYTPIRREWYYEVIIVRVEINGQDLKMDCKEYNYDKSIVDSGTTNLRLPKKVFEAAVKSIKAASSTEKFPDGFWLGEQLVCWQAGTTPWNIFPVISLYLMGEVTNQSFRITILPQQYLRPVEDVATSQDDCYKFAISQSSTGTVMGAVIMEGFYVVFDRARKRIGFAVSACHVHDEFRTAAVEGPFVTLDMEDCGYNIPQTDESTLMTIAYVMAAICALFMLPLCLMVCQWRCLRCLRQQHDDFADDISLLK

YGRKKRRQRRR [TAT, reference compound]
percentage of 4G8 immunoreactive areas (β-amyloid plaques) in RSC, EC and H regions (5XFAD mice): no significant difference | Secreted Aβ40 (ng/mg; mean ± SD) [1]: 66.71 ± 12.02 ng/mg | Secreted Aβ42 (ng/mg; mean ± SD) [1]: 10.76 ± 2.12 ng/mg | Secreted sAPPα (ng/mg; mean ± SD) [1]: 196.98 ± 17.77 ng/mg | binding to BACE1 protein (IP/WB) (BACE1): not observed
